{"source": "patent US20190201430A1", "about": "“TREATING OCULAR NEOVASCULARIZATION” (Massachusetts Eye and Ear Infirmary, priority 2014, published 2019)", "type_in_all_cases": "cell-based, human", "key": {"[1]": {"tested_on": "VEGFR2", "assay": "Western blotting of VEGF induced VEGFR2 phosphorylation in HUVECs", "conditions": "AICAR 2 mM 2 h, VEGF 12.5 ng/mL 0 to 60 min; FIG. 8C,D", "description": "Human umbilical vein endothelial cells (HUVECs) were cultured in endothelial growth medium (EGM, Lonza, Walkersville, Md.). Normal human dermal fibroblasts (NHDFs) were cultured in fibroblast basal medium (ATCC, Rockville, Md.). Cells were grown at 37° C. in a humidified atmosphere of 95% air, 5% CO2. Experiments were performed on cells below passage 3 to 6 grown to 80%-90% confluence. Protein extraction and Western blotting were carried out as described previously (Morizane et al. JBC (26)). We conducted a densitometric analysis of bands using ImageJ software. Lane-loading differences were normalized by β-actin."}, "[2]": {"tested_on": "c-Abl", "assay": "Western blotting of H2O2 induced c-Abl phosphorylation in HUVEC", "conditions": "AICAR 2 mM 2 h", "description": "(§1) HUVECs (Lonza, Walkersville, Md.) were cultured in Endothelial Growth Medium (EGM, Lonza, Walkersville, Md.). For all experiments, cells were grown at 37° C. in a humidified atmosphere of 5% CO2 and 95% air. Experiments were performed on cells below passage 3 to 6 grown to 80-90% confluence.\n(§2) Protein extraction and western blotting were carried out as described previously (Morizane et al. JBC). Densitometric analysis of bands was performed using ImageJ software. Lane-loading differences were normalized by β-actin.\n(§3) Cells were transfected with siRNAs using Nucleofection kit (Amaxa Biosysteins, Gaithersburg, Md.), following the manufacturer's protocol. The medium was changed at 6 h after transfection. The down-regulation of each protein was evaluated at 3 days after nucleofection."}, "[3]": {"tested_on": "AMPK", "assay": "Western blotting of AMPK phosphorylation in HUVEC (Example 1)", "conditions": "each concentration of AICAR for 2 h, FIG. 2A", "description": "as §1, §2"}, "[4]": {"tested_on": "HUVECs", "assay": "Albumin endocytosis assay under VEGF", "conditions": "AICAR 2 mM 2 h, VEGF 12.5 ng/mL 10 min; FIG. 10B", "description": "After overnight serum starvation, HUVECs were pretreated with AICAR (2 mM) for 2 h and then stimulated with VEGF (12.5 ng/mL) for 10 min. We added BSA conjugated with Alexa 555 (50 μg/mL, Life Technologies, Gaithersburg, Md.) in the medium during the experiment. Cells on coverslips were washed three times with cold TBS and fixed in 100% methanol at −20° C. for 15 min. Cells were then permeabilized in 0.3% Triton X-100, 0.15% BSA in TBS with 0.05% Tween 20 (TBST) for 15 min at room temperature, and blocked with 0.5% skim milk in TBST for 60 min at room temperature. Cells were incubated in p-caveolin-1 antibody diluted 1:200 and VE-cadherin antibody diluted 1:400 overnight at 4° C., and then incubated for 2 h in secondary antibody diluted 1:300. Cells were then rinsed three times in TBST before mounting in Toto3 (Life Technologies). Images were acquired with a Leica TCS SP2 spectral confocal laser scanning microscope (Leica Microsystems, Wetzlar, Germany)."}, "[5]": {"tested_on": "caveolin-1", "assay": "Western blotting of H2O2 induced caveolin-1 phosphorylation in HUVEC", "conditions": "AICAR 2 mM 2 h", "description": "as §1, §2, §3"}, "[6]": {"tested_on": "AMPK", "assay": "Western blotting of AMPK phosphorylation in HUVECs (Example 2)", "description": "Human umbilical vein endothelial cells (HUVECs) were cultured in endothelial growth medium (EGM, Lonza, Walkersville, Md.). Normal human dermal fibroblasts (NHDFs) were cultured in fibroblast basal medium (ATCC, Rockville, Md.). Cells were grown at 37° C. in a humidified atmosphere of 95% air, 5% CO2. Experiments were performed on cells below passage 3 to 6 grown to 80%-90% confluence.\nProtein extraction and Western blotting were carried out as described previously (Morizane et al. JBC (26)). We conducted a densitometric analysis of bands using ImageJ software. Lane-loading differences were normalized by β-actin."}, "[7]": {"conditions": "AMPKα1 or α2 siRNA HUVEC, H2O2 2 mM 30 min, FIG. 3"}}}
{"smiles": "NC(=O)c1ncn([C@@H]2O[C@H](CO)[C@@H](O)[C@H]2O)c1N", "note": "[AICAR, 5-Aminoimidazole-4-carboxamide riboside]", "values": [{"measurement": "VEGFR2 phosphorylation upon VEGF stimulation", "setting": "[1]", "value": "no effect"}, {"measurement": "inhibitory effect of AICAR on H2O2 induced c-Abl phosphorylation after knockdown of either AMPKα isoform", "setting": "[2]; [7]", "value": "abolished"}, {"measurement": "H2O2 induced phosphorylation of c-Abl", "setting": "[2]; HUVEC, then H2O2 0.5-2.0 mM 30 min, FIG. 1A,C", "value": "significantly suppressed"}, {"measurement": "inhibitory effect of AICAR on H2O2 induced c-Abl phosphorylation in cells lacking prdx1", "setting": "[2]; prdx1 siRNA HUVEC, H2O2 2 mM 30 min, FIG. 6A,C", "value": "abolished"}, {"measurement": "AMPK phosphorylation after AICAR administration", "setting": "[3]", "value": "phosphorylated AMPK dose-dependently"}, {"measurement": "VEGF-induced albumin endocytosis", "setting": "[4]", "value": "significantly suppressed"}, {"measurement": "inhibitory effect of AICAR on H2O2 induced caveolin-1 phosphorylation after knockdown of either AMPKα isoform", "setting": "[5]; [7]", "value": "abolished"}, {"measurement": "H2O2 induced phosphorylation of caveolin-1", "setting": "[5]; HUVEC, then H2O2 0.5-2.0 mM 30 min, FIG. 1A,B", "value": "significantly suppressed"}, {"measurement": "H2O2 induced caveolin-1 phosphorylation in c-Abl siRNA cells", "setting": "[5]; c-Abl siRNA HUVEC, H2O2 2 mM 30 min, FIG. 5D,E", "value": "did not change caveolin-1 phosphorylation significantly"}, {"measurement": "inhibitory effect of AICAR on H2O2 induced caveolin-1 phosphorylation in cells lacking prdx1", "setting": "[5]; prdx1 siRNA HUVEC, H2O2 2 mM 30 min, FIG. 6A,B", "value": "abolished"}, {"measurement": "AMPK phosphorylation on AICAR treatment (time course)", "setting": "[6]; AICAR 2 mM, presence or absence of VEGF, FIG. 9A,B", "value": "resulted in AMPK and PTEN phosphorylation"}, {"measurement": "AMPK phosphorylation on AICAR administration", "setting": "[6]; each concentration of AICAR for 2 h, FIG. 12A", "value": "dose dependent AMPK phosphorylation"}]}
